Test results taken from patent US20020169394A1, “Integrated tissue poration, fluid harvesting and analysis device, and method therefor” (priority 1993, published 2002).

What was measured:
subjects left forearm = experiment: Lidocaine delivery through porated stratum corneum with ultrasound; numbness assessed by rubbing a 30 gauge wire across the test site; type: in vivo, human
Description: A drawing of an illustrative delivery apparatus 300 is shown in FIG. 50, wherein the apparatus comprises a housing 304 enclosing a reservoir 308 for holding a drug-containing solution 312. The top portion of the housing comprises an ultrasonic transducer 316 for providing sonic energy to aid in transporting the drug-containing solution through micropores; 320 in the stratum corneum 324. A port 328 in the ultrasonic transducer permits application of pressure thereto for further aiding in transporting the drug-containing solution through the micropores in the stratum corneum. The delivery apparatus is applied to a selected area of an individual's skin such that it is positioned over at least one, and preferably a plurality, of micropores. An adhesive layer 332 attached to a lower portion of the housing permits the apparatus to adhere to the skin such that the drugcontaining solution in the reservoir is in liquid communication with the micropores.
Five subjects were tested for the effectiveness of drug delivery using poration together with ultrasound. The experiment used two sites on the subjects left forearm about three inches apart, equally spaced between the thumb and upper arm. The site near the thumb will be referred to as site 1 the site furthest from the thumb will be referred to as site 2. […] Site 2 was porated with 24 holes spaced 0.8 millimeters apart in a grid contained within a 1 cm diameter circle. The micropores in Site 2 were generated according to the procedure of Example 6. […] Ultrasound applications were made with a custom manufactured Zevex ultrasonic transducer assembly set in burst mode with 0.4 Volts peak to peak input with 1000 count bursts occurring at 10 Hz with a 65.4 kHz fundamental frequency, i.e., a pulse modulated signal with the transducer energized for 15 millisecond bursts, and then turned off for the next 85 milliseconds. The measured output of the amplifier to the transducer was 0.090 watts RMS.
Experiments were executed on both sites, Site 1 for 10 to 12 minute duration and Site 2 for two 5 minute duration intervals applied serially to the same site. Both sites were assessed for numbness using a scale of 10 to 0, where 10 indicated no numbness and 0 indicated complete numbness as reported by the test subjects.

[1] = test system: human cadaver skin samples (stratum corneum); type: in vitro ADME
Protocol: Modulated sonic energy and chemical enhancers were tested for their ability to control transdermal flux on human cadaver skin samples. In these tests, the epidermal membrane had been separated from the human cadaver whole skin by the heat-separation method of Example 1. The epidermal membrane was cut and placed between two halves of the permeation cell with the stratum corneum facing either the upper (donor) compartment or lower (receiver) compartment. Modified Franz cells were used to hold the epidermis, as shown in FIG. 2 of U.S. Pat. No. 5,445,611. Each Franz cell consists of an upper chamber and a lower chamber held together with one or more clamps. The lower chamber has a sampling port through which materials can be added or removed. A sample of stratum corneum is held between the upper and lower chambers when they are clamped together. The upper chamber of each Franz cell is modified to allow an ultrasound transducer to be positioned within 1 cm of the stratum corneum membrane. Methylene blue solution was used as an indicator molecule to assess the permeation of the stratum corneum. A visual record of the process and results of each experiment was obtained in a time stamped magnetic tape format with a video camera and video cassette recorder (not shown). Additionally, samples were withdrawn for measurement with an absorption spectrometer to quantitate the amount of dye which had traversed the stratum corneum membrane during an experiment. Chemical enhancers suitable for use could vary over a wide range of solvents and/or cell envelope disordering compounds as noted above. The specific enhancer utilized was: ethanol/glycerol/water/glycerolmonooleate/methyl laurate in 50/30/15/2.5/2.5 volume ratios. The system for producing and controlling the sonic energy included a programmable 0-30 MHz arbitrary waveform generator (Stanford Reserach Systems Model DS345), a 20 watt 0-30 MHz amplifier, and two unfocused ultrasound immersion transducers having peak resonances at 15 and 25 MHz, respectively. […]

[2] = Site 2 porated plus ultrasound, after the second application

With `CCN(CC)CC(=O)Nc1c(C)cccc1C` [lidocaine] the “numbness, scale of 10 to 0 (10 no numbness, 0 complete numbness)” value (subjects left forearm; Site 1 control, no micro-poration or sonic energy, at approximately 20 minutes) was 3, the “numbness, scale of 10 to 0 (10 no numbness, 0 complete numbness)” value (subjects left forearm; Site 1 control: lidocaine and enhancer solution, no micro-poration or sonic energy, at 10 to 12 minutes, 5 subjects) was 7 to 10 and the “diameter of totally numb circle” value (subjects left forearm; Site 2 porated plus ultrasound, after the second 5 minute application) was “about 12 cm”. For the same compound, the “diameter of numb oval pattern parallel to the forearm” value (subjects left forearm; [2]) was 2 to 6 cm, the “diameter of numb oval pattern perpendicular to the forearm” value (subjects left forearm; [2]) was 2 to 2.5 cm and the “numbness, scale of 10 to 0 (10 no numbness, 0 complete numbness)” value (subjects left forearm; Site 2 porated with 24 holes plus low level ultrasound, in the 1 cm circle containing the porations, first 5 minute application) was 0 to 1.

For `CN(C)c1ccc2nc3ccc(=[N+](C)C)cc-3sc2c1` [methylene blue], the “visual evidence of dye flux through the stratum corneum” value [1] was “No visual evidence of dye flux”, the “visually detectable permeation of the stratum corneum” value [1] was “no visually detectable permeation” and the “level of dye solution in 2 ml of receiver medium (no visual indication of dye flux)” value ([1]; human, 5 min) was < 0.0015 % (v/v).
